Laboratory results as given in patent US9452986B2, “6-heteroaryloxy- or 6-aryloxy-quinoline-2-carboxamides and method of use” (AbbVie Inc., priority 2014, dated 2016).

Target: recombinant human Nav1.7 (Homo sapiens (Human), UniProt Q15858)
Assay: FRET-based membrane potential assay, recombinant human sodium channel Nav1.7
Format: cell-based
Conditions: HEK293 cells stably expressing recombinant human Nav1.7; veratridine + scorpion venom depolarization; read-out: FRET-Membrane Potential Nav1.7 IC50
Method in brief: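 Channel activation used veratridine at its EC80, set by a dilution curve each experiment, together with Leiurus scorpion venom, added 3 min after compound. Membrane-potential ratio signals from FLIPR Tetra in HEPES-buffered HBSS were fitted to a four-parameter Hill equation for percent inhibition and IC50.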

recombinant human Nav1.7, sequence (Q15858 whole entry): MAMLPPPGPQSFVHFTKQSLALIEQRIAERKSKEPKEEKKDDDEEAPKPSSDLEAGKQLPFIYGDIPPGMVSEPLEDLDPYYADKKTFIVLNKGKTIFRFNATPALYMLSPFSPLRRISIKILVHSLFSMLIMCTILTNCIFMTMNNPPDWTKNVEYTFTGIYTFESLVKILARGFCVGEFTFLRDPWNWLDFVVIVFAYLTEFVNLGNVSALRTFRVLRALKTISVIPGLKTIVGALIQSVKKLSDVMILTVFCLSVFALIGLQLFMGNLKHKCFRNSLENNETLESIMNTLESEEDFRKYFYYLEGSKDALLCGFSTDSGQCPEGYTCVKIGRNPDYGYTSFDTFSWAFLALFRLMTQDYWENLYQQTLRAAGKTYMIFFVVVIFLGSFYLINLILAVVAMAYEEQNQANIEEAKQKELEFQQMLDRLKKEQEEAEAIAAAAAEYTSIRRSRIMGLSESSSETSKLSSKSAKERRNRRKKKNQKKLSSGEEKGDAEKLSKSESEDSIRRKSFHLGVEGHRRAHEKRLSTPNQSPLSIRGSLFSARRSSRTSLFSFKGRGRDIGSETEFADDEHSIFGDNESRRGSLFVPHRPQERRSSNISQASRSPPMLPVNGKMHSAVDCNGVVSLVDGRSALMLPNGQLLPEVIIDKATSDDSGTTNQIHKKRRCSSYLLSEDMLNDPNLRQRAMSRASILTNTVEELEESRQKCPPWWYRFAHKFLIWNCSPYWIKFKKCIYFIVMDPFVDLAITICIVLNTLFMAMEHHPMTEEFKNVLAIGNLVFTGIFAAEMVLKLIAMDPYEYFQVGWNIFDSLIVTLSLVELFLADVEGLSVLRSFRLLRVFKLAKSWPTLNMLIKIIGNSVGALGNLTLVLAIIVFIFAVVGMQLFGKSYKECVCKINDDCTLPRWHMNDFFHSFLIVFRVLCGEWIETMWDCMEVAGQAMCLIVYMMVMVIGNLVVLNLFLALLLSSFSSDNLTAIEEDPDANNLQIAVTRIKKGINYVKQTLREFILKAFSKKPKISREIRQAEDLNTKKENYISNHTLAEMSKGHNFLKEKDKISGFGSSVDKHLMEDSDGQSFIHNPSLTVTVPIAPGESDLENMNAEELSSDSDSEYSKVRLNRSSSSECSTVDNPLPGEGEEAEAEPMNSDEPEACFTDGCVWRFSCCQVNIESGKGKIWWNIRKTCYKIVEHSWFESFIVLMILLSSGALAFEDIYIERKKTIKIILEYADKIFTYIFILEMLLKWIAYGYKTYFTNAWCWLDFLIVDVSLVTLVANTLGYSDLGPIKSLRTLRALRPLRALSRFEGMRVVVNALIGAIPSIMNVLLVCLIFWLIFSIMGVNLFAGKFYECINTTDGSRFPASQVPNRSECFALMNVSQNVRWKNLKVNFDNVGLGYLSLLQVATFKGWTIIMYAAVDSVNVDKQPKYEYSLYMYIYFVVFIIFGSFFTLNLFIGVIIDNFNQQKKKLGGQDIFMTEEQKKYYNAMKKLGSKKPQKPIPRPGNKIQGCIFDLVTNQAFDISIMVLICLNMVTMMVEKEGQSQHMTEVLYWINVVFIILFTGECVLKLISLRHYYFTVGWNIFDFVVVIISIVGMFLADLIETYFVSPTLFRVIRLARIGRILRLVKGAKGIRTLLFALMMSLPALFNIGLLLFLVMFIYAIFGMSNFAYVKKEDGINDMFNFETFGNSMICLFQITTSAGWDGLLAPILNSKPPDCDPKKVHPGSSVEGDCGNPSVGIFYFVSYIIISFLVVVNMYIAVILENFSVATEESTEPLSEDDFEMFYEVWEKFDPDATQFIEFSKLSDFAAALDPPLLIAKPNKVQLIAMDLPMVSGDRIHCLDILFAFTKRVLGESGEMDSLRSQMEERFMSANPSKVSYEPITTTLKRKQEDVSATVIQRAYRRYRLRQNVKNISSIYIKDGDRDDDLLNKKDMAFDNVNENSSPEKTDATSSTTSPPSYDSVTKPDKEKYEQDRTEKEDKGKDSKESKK

Q: Which IC50 does the source give for `O=C(c1ccc2cc(Oc3ccc(C(F)(F)F)cn3)ccc2n1)N1CC(Oc2ccc(Cl)cc2)C1` [Example 203, [3-(4-chlorophenoxy)azetidin-1-yl](6-{[5-(trifluoromethyl)pyridin-2-yl]oxy}quinolin-2-yl)methanone] here?
A: > 20000 nM

Q: Which IC50 does the source give for `O=C(c1ccc2cc(Oc3ccc(C(F)(F)F)cn3)ccc2n1)N1CC(n2cncn2)C1` [Example 204, [3-(1H-1,2,4-triazol-1-yl)azetidin-1-yl](6-{[5-(trifluoromethyl)pyridin-2-yl]oxy}quinolin-2-yl)methanone] here?
A: 1630 nM

Q: For `C[C@@H]1N(C(=O)c2ccc3cc(Oc4ccc(C(F)(F)F)cn4)ccc3n2)CC1(C)C` [Example 205, (6-{[5-(trifluoromethyl)pyridin-2-yl]oxy}quinolin-2-yl)[(2S)-2,3,3-trimethylazetidin-1-yl]methanone], which IC50 is on record?
A: 3170 nM

Q: For `O=C(c1ccc2cc(Oc3ccc(C(F)(F)F)cn3)ccc2n1)N1CC(Oc2ccc(Br)cc2)C1` [Example 206, [3-(4-bromophenoxy)azetidin-1-yl](6-{[5-(trifluoromethyl)pyridin-2-yl]oxy}quinolin-2-yl)methanone], which IC50 is on record?
A: > 20000 nM

Q: `CC(C)(O)c1ccc(Oc2ccc3nc(C(=O)N4CCNCC4)ccc3c2)cc1` [Example 209, {6-[4-(2-hydroxypropan-2-yl)phenoxy]quinolin-2-yl}(piperazin-1-yl)methanone] was tested. Which IC50 did it give?
A: 8860 nM

Q: Which IC50 does the source give for `NC(=O)c1ccc2cc(Oc3ccc(C(F)(F)F)cn3)ccc2n1` [Example 210, 6-{[5-(trifluoromethyl)pyridin-2-yl]oxy}quinoline-2-carboxamide] here?
A: > 20000 nM

Q: With `CN1CCN(C(=O)c2ccc3cc(Oc4ccc(C(F)(F)F)cn4)ccc3n2)CC1` [Example 211, (4-methylpiperazin-1-yl)(6-{[5-(trifluoromethyl)pyridin-2-yl]oxy}quinolin-2-yl)methanone] as the compound, how does the IC50 read?
A: 1930 nM

Q: With `O=C(c1ccc2cc(Oc3ccc(C(F)(F)F)cn3)ccc2n1)N1CCC(=O)N2C[C@@H](O)C[C@H]2C1` [Example 212, (8S,9aS)-8-hydroxy-2-[(6-{[5-(trifluoromethyl)pyridin-2-yl]oxy}quinolin-2-yl)carbonyl]octahydro-5H-pyrrolo[1,2-a][1,4]diazepin-5-one] as the compound, how does the IC50 read?
A: > 20000 nM

Q: For `O=C(c1ccc2cc(Oc3ccc(C(F)(F)F)cn3)ccc2n1)N1CC[C@@H]2CN[C@@H]2C1` [Example 213, (1S,6R)-3,8-diazabicyclo[4.2.0]oct-3-yl(6-{[5-(trifluoromethyl)pyridin-2-yl]oxy}quinolin-2-yl)methanone], which IC50 is on record?
A: 9400 nM

Q: With `CS(=O)(=O)c1ccc(Oc2ccc3nc(C(=O)N4CCNCC4)ccc3c2)cc1` [Example 214, {6-[4-(methylsulfonyl)phenoxy]quinolin-2-yl}(piperazin-1-yl)methanone] as the compound, how does the IC50 read?
A: > 20000 nM

Q: How did the IC50 turn out when `O=C(c1ccc2cc(Oc3ccc(S(=O)(=O)C(F)(F)F)cc3)ccc2n1)N1CCNCC1` [Example 215, piperazin-1-yl(6-{4-[(trifluoromethyl)sulfonyl]phenoxy}quinolin-2-yl)methanone] was run?
A: 810 nM

Q: For `O=C(NC1CNC1)c1ccc2cc(Oc3ccc(C(F)(F)F)cn3)ccc2n1` [Example 216, N-(azetidin-3-yl)-6-{[5-(trifluoromethyl)pyridin-2-yl]oxy}quinoline-2-carboxamide], which IC50 is on record?
A: 1670 nM

Q: `O=C(c1ccc2cc(Oc3ccc(C(F)(F)F)cn3)ccc2n1)N1CC(c2cccnc2)C1` [Example 217, [3-(pyridin-3-yl)azetidin-1-yl](6-{[5-(trifluoromethyl)pyridin-2-yl]oxy}quinolin-2-yl)methanone] was tested. Which IC50 did it give?
A: 1040 nM

Q: For `CC(=O)N1CCN(C(=O)c2ccc3cc(Oc4ccc(C(F)(F)F)cn4)ccc3n2)CC1` [Example 218, 1-{4-[(6-{[5-(trifluoromethyl)pyridin-2-yl]oxy}quinolin-2-yl)carbonyl]piperazin-1-yl}ethanone], which IC50 is on record?
A: > 20000 nM

Q: With `O=C(c1ccc2cc(Oc3ccc(C(F)(F)F)cn3)ccc2n1)N1CC=CC1` [Example 220, 2,5-dihydro-1H-pyrrol-1-yl(6-{[5-(trifluoromethyl)pyridin-2-yl]oxy}quinolin-2-yl)methanone] as the compound, how does the IC50 read?
A: 2000 nM

Q: `O=C(c1ccc2cc(Oc3ccc(C(F)(F)F)cn3)ccc2n1)N1CCc2ccncc2C1` [Example 222, 3,4-dihydro-2,7-naphthyridin-2(1H)-yl(6-{[5-(trifluoromethyl)pyridin-2-yl]oxy}quinolin-2-yl)methanone] was tested. Which IC50 did it give?
A: 2150 nM

Q: Which IC50 does the source give for `O=C(c1ccc2cc(Oc3ccc(C(F)(F)F)cn3)ccc2n1)N1C[C@@H](O)C[C@@H]1c1cc(F)ccc1F` [Example 223, [(2R,4S)-2-(2,5-difluorophenyl)-4-hydroxypyrrolidin-1-yl](6-{[5-(trifluoromethyl)pyridin-2-yl]oxy}quinolin-2-yl)methanone] here?
A: 2790 nM

Q: `O=C(c1ccc2cc(Oc3ccc(C(F)(F)F)cn3)ccc2n1)N1CC[C@H](NS(=O)(=O)c2ccc(C(F)(F)F)cc2)[C@H]1c1ccccc1` [Example 225, N-{(2R,3S)-2-phenyl-1-[(6-{[5-(trifluoromethyl)pyridin-2-yl]oxy}quinolin-2-yl)carbonyl]pyrrolidin-3-yl}-4-(trifluoromethyl)benzenesulfonamide] was tested. Which IC50 did it give?
A: > 20000 nM

Q: `CC(=O)c1ccc(Oc2ccc3nc(C(=O)N4CCNCC4)ccc3c2)nc1` [Example 226, 1-(6-{[2-(piperazin-1-ylcarbonyl)quinolin-6-yl]oxy}pyridin-3-yl)ethanone] was tested. Which IC50 did it give?
A: > 20000 nM

Q: `O=C(c1ccc2cc(Oc3ccc(C(F)(F)F)cn3)ccc2n1)N1CCS(=O)(=O)CC1` [Example 227, (1,1-dioxidothiomorpholin-4-yl)(6-{[5-(trifluoromethyl)pyridin-2-yl]oxy}quinolin-2-yl)methanone] was tested. Which IC50 did it give?
A: 2940 nM

Q: For `CC(C)(C)N1CCN(C(=O)c2ccc3cc(Oc4ccc(C(F)(F)F)cn4)ccc3n2)CC1` [Example 228, (4-tert-butylpiperazin-1-yl)(6-{[5-(trifluoromethyl)pyridin-2-yl]oxy}quinolin-2-yl)methanone], which IC50 is on record?
A: 1150 nM

Q: `O=C(c1ccc2cc(Oc3ccc(C(F)(F)F)cn3)ccc2n1)N1CC2(CCNCC2)C1` [Example 232, 2,7-diazaspiro[3.5]non-2-yl(6-{[5-(trifluoromethyl)pyridin-2-yl]oxy}quinolin-2-yl)methanone] was tested. Which IC50 did it give?
A: 17400 nM

Q: With `O=C(c1ccc2cc(Oc3ccc(C(F)(F)F)cn3)ccc2n1)N1CCCNC1` [Example 233, tetrahydropyrimidin-1(2H)-yl(6-{[5-(trifluoromethyl)pyridin-2-yl]oxy}quinolin-2-yl)methanone] as the compound, how does the IC50 read?
A: 586 nM

Q: For `O=C(c1ccc2cc(Oc3ccc(C(F)(F)F)cn3)ccc2n1)N1CCNC[C@H]1CO` [Example 234, [(2S)-2-(hydroxymethyl)piperazin-1-yl](6-{[5-(trifluoromethyl)pyridin-2-yl]oxy}quinolin-2-yl)methanone], which IC50 is on record?
A: 2870 nM

Q: With `CNS(=O)(=O)N1CCN(C(=O)c2ccc3cc(Oc4ccc(C(F)(F)F)cn4)ccc3n2)CC1` [Example 235, N-methyl-4-[(6-{[5-(trifluoromethyl)pyridin-2-yl]oxy}quinolin-2-yl)carbonyl]piperazine-1-sulfonamide] as the compound, how does the IC50 read?
A: 2360 nM

Q: `O=C(c1ccc2cc(Oc3ccc(C(F)(F)F)cn3)ccc2n1)N1CCCCCC1` [Example 238, azepan-1-yl(6-{[5-(trifluoromethyl)pyridin-2-yl]oxy}quinolin-2-yl)methanone] was tested. Which IC50 did it give?
A: 1540 nM

Q: Which IC50 does the source give for `CNC(=O)[C@@H]1CCCN1C(=O)c1ccc2cc(Oc3ccc(C(F)(F)F)cn3)ccc2n1` [Example 239, N-methyl-1-[(6-{[5-(trifluoromethyl)pyridin-2-yl]oxy}quinolin-2-yl)carbonyl]-L-prolinamide] here?
A: > 20000 nM

Same assay, conditions: read-out: FRET-Membrane Potential Nav1.7 IC50

Q: With `CC1(CO)CN(C(=O)c2ccc3cc(Oc4ccc(C(F)(F)F)cn4)ccc3n2)C1` [Example 207, [3-(hydroxymethyl)-3-methylazetidin-1-yl](6-{[5-(trifluoromethyl)pyridin-2-yl]oxy}quinolin-2-yl)methanone] as the compound, how does the IC50 read?
A: 3650 nM

Q: Which IC50 does the source give for `O=C1NCCN(C(=O)c2ccc3cc(Oc4ccc(C(F)(F)F)cn4)ccc3n2)C1c1ccccc1` (centres unmarked) [Example 208, 3-phenyl-4-[(6-{[5-(trifluoromethyl)pyridin-2-yl]oxy}quinolin-2-yl)carbonyl]piperazin-2-one] here?
A: 3050 nM

Q: Which IC50 does the source give for `O=C(c1ccc2cc(Oc3ccc(C(F)(F)F)cn3)ccc2n1)N1CCSCC1` [Example 221, thiomorpholin-4-yl(6-{[5-(trifluoromethyl)pyridin-2-yl]oxy}quinolin-2-yl)methanone] here?
A: 2790 nM

Q: For `O=C(c1ccc2cc(Oc3ccc(C(F)(F)F)cn3)ccc2n1)N1CCCC1c1ccc(C(F)(F)F)cc1` (centres unmarked) [Example 224, {2-[4-(trifluoromethyl)phenyl]pyrrolidin-1-yl}(6-{[5-(trifluoromethyl)pyridin-2-yl]oxy}quinolin-2-yl)methanone], which IC50 is on record?
A: > 20000 nM

Q: `O=C(N[C@@H]1CC[C@H]2CN(Cc3ccccc3)C[C@H]21)c1ccc2cc(Oc3ccc(C(F)(F)F)cn3)ccc2n1` [Example 230, N-[(3aS,4R,6aR)-2-benzyloctahydrocyclopenta[c]pyrrol-4-yl]-6-{[5-(trifluoromethyl)pyridin-2-yl]oxy}quinoline-2-carboxamide] was tested. Which IC50 did it give?
A: 259 nM

Q: With `CC(C)N1CCN(C(=O)c2ccc3cc(Oc4ccc(C(F)(F)F)cn4)ccc3n2)CC1` [Example 231, (4-isopropylpiperazin-1-yl)(6-{[5-(trifluoromethyl)pyridin-2-yl]oxy}quinolin-2-yl)methanone] as the compound, how does the IC50 read?
A: 783 nM

Q: For `CCNS(=O)(=O)N1CCN(C(=O)c2ccc3cc(Oc4ccc(C(F)(F)F)cn4)ccc3n2)CC1` [Example 236, N-ethyl-4-[(6-{[5-(trifluoromethyl)pyridin-2-yl]oxy}quinolin-2-yl)carbonyl]piperazine-1-sulfonamide], which IC50 is on record?
A: 1010 nM

Q: `O=C(c1ccc2cc(Oc3ccc(C(F)(F)F)cn3)ccc2n1)N1CCC[C@H]1CO` [Example 237, [(2S)-2-(hydroxymethyl)pyrrolidin-1-yl](6-{[5-(trifluoromethyl)pyridin-2-yl]oxy}quinolin-2-yl)methanone] was tested. Which IC50 did it give?
A: 3070 nM
